Tests used:
[1] = system: SK-N-MC neuroepithelioma cells; test: Iron efflux assay (59Fe release from pre-labeled cells); type: cell-based, human; conditions: 25 μM chelator, 3 h at 37° C.
Description: The culture dishes were then placed on ice, the supernatant containing excess ^59Fe-Tf was aspirated and the cells washed 4 times with ice-cold PBS. […] After 3 h the culture dishes were again placed on ice, the media was collected in counting tubes and this provided a measurement of released ^59Fe. Ice-cold PBS (1 mL) was added to plates containing cells and cells were scraped from the plastic surface using a Teflon spatula and also collected in counting tubes. These tubes represent the intracellular ^59Fe content. Results are expressed as total ^59Fe released as a percentage of total ^59Fe present. Radioactivity was measured using a Wallac Wizard 3″ Gamma Counter (PerkinElmer, MA, USA).

[2] = system: metmyoglobin (metMb); test: metMb formation in vivo; parameters: species or system C57BL6 mice; conditions: 6 mg/kg intravenously, 30 min post-administration, heart
Description: FIG. 14. Effect of thiosemicarbazone chelators on metMb-formation in vivo. MetMb levels after Dp44mT Triapine® or Dp4cycH4mT treatment in vivo at a dose of 6 mg/kg administered intravenously via the tail vein. Mice in the control group were treated with vehicle alone. At 30 min post-administration, whole hearts were collected for determination of metMb levels.
Mouse heart tissue was exhaustively perfused with ice-cold HBSS to remove blood and homogenized in ice-cold HBSS containing protease inhibitor cocktail (Roche, Basel, Switzerland). Heart homogenates were centrifuged (16,000×xg/45 min/4° C.) and the supernatant ([oxyMb]=50 μM) used immediately.
(§1) The levels of metHb and metMb in RBC lysates were determined using a Shimadzu UV-Vis spectrophotometer (UV-1800; Shimadzu Corporation, Kyoto, Japan) at 577 nm and 630 nm for metHb and metMb in accordance with published methods (Winterbourn CC and Carrell R W (1977). Biochem J 165: 141-148).
(§2) C57BL6 mice (7-8 weeks-old) were used under a protocol approved by the university of Sydney Animal Ethics Committee. Dp44mT, Triapine® or Dp4cycH4mT (all at 6 mg/kg) were dissolved in 30% propylene glycol/saline and administered iv via the tail vein. Subsequently, 30 min after administration, mice were anesthetized with isoflurane and blood samples obtained by cardiac puncture. Blood samples were lysed with 2.5 volumes of ultrapure water for metHb estimation. Mice were sacrificed with isoflurane, the heart exhaustively perfused with HBSS and Mb isolated.

[3] = system: PANC 1 pancreatic cancer cells; test: MTT proliferation assay, PANC 1; type: cell-based; conditions: Homo sapiens; PANC 1, MTT, 72 h
Description: (§3) The pancreatic cancer cell lines, including MIAPaCa-2, PANC 1, CAPAN-2 and CFPAC-1 were a generous gift from Prof. Andrew Biankin (Garvan Institute, NSW, Australia). The MIAPaCa-2, PANC 1 and CFPAC-1 cell lines were grown in DMEM medium (Invitrogen) and CAPAN-2 cells were grown in McCoy's medium (Invitrogen). All media was supplemented with 10% (v/v) fetal calf serum (Invitrogen), 1% (v/v) non-essential amino acids (Invitrogen), 1% (v/v) sodium pyruvate (Invitrogen), 2 mM L-glutamine (Invitrogen), 100 μg/mL of streptomycin (Invitrogen), 100 U/ml penicillin (Invitrogen), and 0.28 μg/mL of fungizone.
(§4) To further examine the spectrum of anti-proliferative activity, Dp4cycH4mT was tested against pancreatic cancer in vitro, performing MTT proliferation assays with PANC 1, MIAPaCa-2, CFPAC-1 and CAPAN-2 pancreatic cancer cells. As a comparison, currently used treatments for pancreatic cancer including gemcitabine and 5-fluorouracil were also tested. The iron chelator, DFO, was included as a positive control.
(§5) Table 2A. Anti-proliferative activity of Dp4cycH4mT against pancreatic cancer cell lines. Growth and antiproliferative activity IC50 (μM) values of Dp4cycH4mT in a variety of pancreatic cell lines and in comparison to DFO and the clinically used drugs gemcitabine and 5-fluorouracil as determined by the MTT assay. Cells were seeded and allowed to attach to wells for 24 h and then incubated for 72 h at 37° C. with control medium or the chelators. Results are mean±SD (3 experiments).
as §5, with “2B.” for “2A.”, “IC90” for “Growth and antiproliferative activity IC50”

[4] = system: MIAPaCa-2 pancreatic cancer cells; test: MTT proliferation assay, MIAPaCa-2; type: cell-based; conditions: Homo sapiens, MIA PaCa-2; MIAPaCa-2, MTT, 72 h
Description: as §3, §4, §5
as §5, with “2B.” for “2A.”, “IC90” for “Growth and antiproliferative activity IC50”

[5] = system: pancreatic cancer cell lines; test: MTT proliferation assays, pancreatic cancer cell line panel (comparison of IC50); type: cell-based; conditions: in 2 out of the 4 cell types
Description: as §3, §4
Table 2A. Anti-proliferative activity of Dp4cycH4mT against pancreatic cancer cell lines. […]. Cells were seeded and allowed to attach to wells for 24 h and then incubated for 72 h at 37° C. with control medium or the chelators. Results are mean±SD (3 experiments).

[6] = system: CAPAN-2 pancreatic cancer cells; test: MTT proliferation assay, CAPAN-2; type: cell-based; conditions: Homo sapiens; CAPAN-2, MTT, 72 h
Description: as §3, §4, §5
as §5, with “2B.” for “2A.”, “IC90” for “Growth and antiproliferative activity IC50”

[7] = system: methemoglobin (metHb); test: metHb formation in vivo; parameters: species or system C57BL6 mice; conditions: 6 mg/kg intravenously, blood taken after 30 min
Description: FIG. 13. Effect of thiosemicarbazone chelators on metHb-formation in vivo. MetHb after Dp44mT, Triapine® or Dp4cycH4mT treatment in vivo at a dose of 6 mg/kg administered intravenously via the tail vein. Mice in the control group were treated with vehicle alone. At 30 minutes post-administration, whole blood was collected for determination of metHb levels.
as §1, §2

[8] = system: SK-N-MC neuroepithelioma cells; test: Iron uptake assay (59Fe uptake from 59Fe-transferrin); type: cell-based, human; conditions: 25 μM chelator, 3 h at 37° C., 59Fe-Tf
Description: Cells were cultured in the same way as for the iron efflux experiments. […] At the end of the incubation the culture dishes were placed on ice, the media aspirated, and the cells washed 4 times with ice cold PBS. Protease (1 mL; 1 mg/mL; Sigma-Aldrich, NSW, Australia) solution was added to each plate and allowed to incubate on ice for 30 min. This facilitated the removal of membrane bound ^59Fe-Tf. Cells were then scraped from the plastic surface using a Teflon spatula and collected in Eppendorf tubes. These were centrifuged at 10000 rpm and 4° C. for 3 min. The supernatant was then transferred into counting tubes and the cell pellet resuspended in PBS before also being transferred into another set of counting tubes. Radioactivity was measured using a Wallac Wizard 3″ Gamma Counter (PerkinElmer, MA, USA). Results are expressed as average ^59Fe content of the cellular fraction as a percentage of the control value.

levels of metMb [2]: 31.7±3.2%
IC50 [3]: 50 ± 2 nM
IC90 [3]: > 5000 nM
IC50 [4]: 9 ± 0.3 nM
IC90 [4]: > 5000 nM
IC50 fold lower compared to 5-fluorouracil [5]: ≥ 1000 fold
IC50 fold lower compared to gemcitabine [5]: at least 100 fold
IC50 [6]: 40 ± 8 nM
IC90 [6]: > 5000 nM
metHb (% of total Hb) [7]: comparable to the control
Compound: CN(C(=S)NN=C(c1ccccn1)c1ccccn1)C1CCCCC1 [Dp4cycH4mT, di-2-pyridylketone 4-cyclohexyl-4-methyl-3-thiosemicarbazone]
cellular 59Fe mobilised (59Fe released as percentage of total 59Fe) [1]: 22%
cellular 59Fe uptake (% of the control) [8]: 21%
